Where a name gives a salt, the structure may show the parent alone.
The compounds below were run on Plasmodium falciparum (assay: GSK_TCMDC: Inhibition of Plasmodium falciparum 3D7 in whole erythrocytes, using parasite LDH activity as an index of growth.). Conditions: not given.
Format: functional, organism-based

Row | SMILES | XC50
1 | S=C(NCCc1ccc(Cl)cc1)NC1CCC(CN2CCC(c3c[nH]c4ccccc34)CC2)CC1 (configuration not stated) | 703 nM
2 | CCOc1ccc2nccc([C@@H](O)[C@@H]3C[C@@H]4CCN3C[C@@H]4CC)c2c1 [ETHYLHYDROCUPREINE] | 612 nM

Same assay, conditions: Plasmodium falciparum, 3D7

Row | SMILES | XC50
3 | CC1CN(c2cnn(Cc3ccc(NC(=O)Nc4cccc(C(F)(F)F)c4)cc3)c(=O)c2Cl)CC(C)N1 (configuration not stated) | 940 nM
4 | CNS(=O)(=O)Cc1ccc(Nc2nccc(Nc3cccc4c3cnn4C(=O)Nc3ccccc3)n2)cc1 | 959 nM
5 | Cc1ccc(CC(C)NCC(O)c2cccc([N+](=O)[O-])c2)cc1 (configuration not stated) | 761 nM
6 | COCCNCc1cccc(-c2ccc3c(Nc4ccc(Oc5cccnc5)cc4)ccnc3c2)c1 | 178 nM
7 | COc1ccc(NC(=O)[C@H](Cc2ccccc2)Nc2cc(C)nc(NCCc3ccc(F)cc3)n2)cc1 | 1120 nM
8 | COc1ccc(Nc2nccc(N3CCC(NC(=O)Nc4cc(C)ccc4C)C3)n2)cc1 (configuration not stated) | 901 nM
9 | CCc1cn(CCc2ccccc2)c2ccc(C(=O)N[C@@H](Cc3ccccc3)[C@H](O)CNC(C)(C)CCCC(C)C)cc12 | 219 nM
10 | Cc1cccc2nc(-c3ccc(-c4cccc(CNCCc5ccncc5)c4)cc3)[nH]c12 | 204 nM
11 | COc1ccc(C2CC(=O)C3=C(C2)NC(C)=C(C(=O)OC(C)C)C3c2ccccc2F)cc1OC (configuration not stated) | 61.6 nM
12 | O=C(NCCN1CCC(NC(=O)c2ccc(-c3ccccn3)s2)CC1)c1ccc(Cl)c(Cl)c1 | 881 nM
13 | COc1ccc2ncc(F)c(CCN3CC(O)C(CNCc4ccc5c(n4)NC(=O)CS5)C3)c2c1 (configuration not stated) | 784 nM
14 | CC1(C)NC(N)=NC(=N)N1OCCOc1cccc(C(F)(F)F)c1 | 3.2 nM
15 | CC1=NN(c2ccc(C)c(C)c2)C(=O)C1=NNc1cccc(-c2cccc(NC(=O)OC(C)(C)C)c2)c1O | 695 nM
16 | NC1=NC(CCc2ccccc2)N(c2ccccc2)C(N)=N1 (configuration not stated) | 77.1 nM
17 | CCCOc1cc(O)c(-c2[nH]nc(C)c2Oc2ccccc2)cc1CC | 1070 nM
18 | Oc1ccc(CCNc2nc(N/N=C/C=C/c3ccc(Cl)cc3)nc(N3CCNCC3)n2)cc1 | 779 nM
19 | CCN(CC)Cc1cc(Nc2c3ccc(Cl)cc3nc3cccc(OC)c23)ccc1O | 33.4 nM
20 | CC(C)C[C@@H](/C=N/NC(N)=O)NC(=O)[C@H](CC(C)C)NC(=O)[C@H](CC(C)C)NC(=O)OCc1ccccc1 | 150 nM
21 | Cn1cncc1C(=O)Nc1cccc(-c2ccc(-c3nc4ccccc4[nH]3)s2)c1 | 796 nM
22 | Fc1cccc(Nc2nc(NCc3ccc(OCc4ccccc4)cc3)nc(Nc3cccc(F)c3)n2)c1 | 1180 nM
23 | COC(=O)c1ccc(CC(C)NCC(O)c2cc(Cl)c(N)c(Cl)c2)cc1 (configuration not stated) | 877 nM
24 | CC(C)(C)OC(=O)NCc1ccc(Nc2nnc(-c3ccc(OCC(=O)NCc4ccc(C(C)(C)C)cc4)c([N+](=O)[O-])c3)o2)cc1 | 800 nM
25 | NC(=O)c1cccc(Nc2nccc(Nc3ccc(Oc4cccc(Cl)c4)c(Cl)c3)n2)c1 | 1280 nM
26 | Cc1ccc(-c2ccc(Cl)cc2Oc2cnc(N)nc2N)o1 | 1080 nM

Row | SMILES | XC50
27 | CCCCCCN1CCC(NCc2ccc(CN(C)C)cc2)CC1 | 1270 nM
28 | COc1cc(F)c2ncc(C#N)c(CCN3CCC(NCc4ccc5c(c4)OCCO5)CC3)c2c1 | 428 nM
29 | CCNc1cc(C(=O)N[C@@H](Cc2ccccc2)[C@H](O)CNC(C)CCCC(C)C)cc(N2CCCS2(=O)=O)c1 (some centres not stated) | 219 nM
30 | CCOc1ccc2c(c1)N(C(=O)C=Cc1ccccc1)C(C)(C)c1ssc(=S)c1-2 | 1150 nM
31 | O=C(O)CCc1ccc(-c2c[nH]c3ncc(-c4ccc5ncccc5c4)cc23)cc1 | 302 nM
32 | COc1ccc(Cc2cnc3nc(N)nc(N)c3c2C)cc1OC | 9.41 nM
33 | CC(C)[C@H](NC(=O)c1ccc(O)c(-c2ccc(Cl)c(Cl)c2)c1)C(=O)NC1CCCCCC1 | 224 nM
34 | Cc1cccc(S(=O)(=O)Nc2cccc(CCN3CCC(N4CCCCC4)CC3)c2)c1 | 1330 nM
35 | COc1ccc(-c2nc3c(NCc4ccccc4)nccc3[nH]2)c(OC)c1 | 778 nM
36 | O=C(NCc1cccc(F)c1)Nc1ccc(-c2cccc(-c3nc4ccccc4[nH]3)c2)cc1 | 894 nM
37 | CSC1=NC(C)(C)CC2(CC(c3cccc(C)c3)c3cc(Cl)c(O)cc3O2)N1 (configuration not stated) | 879 nM
38 | CC(C)(C)OC(=O)NCC(=O)N(Cc1ccccc1)Cc1ccccc1 | 124 nM
39 | Cc1ccc2[nH]c(-c3ccccc3Nc3ccnc4cc(-c5nccs5)ccc34)nc2c1 | 190 nM
40 | N#Cc1ccc(N(CCOC(=O)c2ccc(Br)s2)Cc2ccccc2C(F)(F)F)cc1C(F)(F)F | 1070 nM
41 | c1ccc2c(C3CCN(CCCCOc4ccc5c(c4)CCN(CC4CC4)CC5)CC3)c[nH]c2c1 | 982 nM
42 | COc1c(C2CCN(CCCCNC(=O)c3oc(-c4ccc(Cl)cc4)cc3CO)CC2)ccc2c1CCCC2 | 367 nM
43 | COc1ccc(CNC(=O)Nc2cc3cc(-c4ccc(CN(C)C)cc4)ccc3n3c(C)nnc23)cc1 | 852 nM
44 | CCOc1ccccc1CNc1nccc(NCc2ccccc2OC)n1 | 1490 nM
45 | CN1CCN(c2ccnc3ccc(NC(=O)Nc4cccc5c(-c6ccncc6)cccc45)cc23)CC1 | 877 nM
46 | S=C(NCCc1ccc(Cl)cc1)NC1CCC(CN2CCC(c3c[nH]c4ccccc34)CC2)CC1 (configuration not stated) | 703 nM
47 | CN1CCN(c2ccc(Nc3ncc(Cl)c(Nc4cccnc4C(N)=O)n3)cc2)CC1 | 153 nM
48 | CCNc1cc(C(=O)N[C@@H](Cc2ccccc2)[C@H](O)CNC(C)C)cc(N2CC(c3ccccc3)CCS2(=O)=O)c1 (some centres not stated) | 412 nM
49 | Cc1cc(N[C@@H](CC(C)C)C(=O)NCc2cccs2)nc(NCCc2ccccc2)n1 | 1190 nM
50 | O=C(Nc1ccc(Cn2nc(Cl)c(N3CCCNCC3)cc2=O)cc1)Nc1ccc(-c2ccccc2)cc1 | 843 nM

Row | SMILES | XC50
51 | COc1cc(Nc2nc(N)c3cc(OC)c(OC)cc3n2)cc(OC)c1 | 272 nM
52 | CN(CC(=O)Nc1cc(C(F)(F)F)ccc1-n1cncn1)Cc1nc2ccccc2s1 | 1410 nM
53 | Cc1ccccc1Nc1nc(NCCCO)c2ccccc2n1 | 407 nM
54 | CC(C)Cn1ncc2c3c(N)nc(N)nc3ccc21 | 159 nM
55 | O=C(/C=C/c1cccc2c1OCO2)Nc1ccnc2ccncc12 | 895 nM
56 | NS(=O)(=O)c1cccc(-c2ccc3nccc(-c4cccc(S(N)(=O)=O)c4)c3c2)c1 | 1270 nM
57 | c1cc2[nH]c(CCCc3nc4cc(C5=N[C@H]6CCCC[C@H]6N5)ccc4[nH]3)nc2cc1C1=N[C@@H]2CCCC[C@@H]2N1 | 1240 nM
58 | Cc1ccc(O)cc1Nc1ccnc2cc(-c3ccccc3)ccc12 | 1070 nM
59 | COc1ccc(C(=O)N[C@@H](CC(C)C)C(=O)N[C@H](/C=N/NC(=O)c2ccccc2)CCc2ccccc2)cc1OCCN1CCOCC1 | 173 nM
60 | CCc1ccc(OCc2ccccc2C(=O)Nc2ccc3nc(C)cc(N)c3c2)cc1 | 203 nM
61 | Cc1noc(C)c1-c1cccc(CNCc2cccc(-c3ccc(-c4nc5cc(C(F)(F)F)ccc5[nH]4)s3)c2)c1 | 166 nM
62 | Cc1[nH]c2ccccc2c1C(=O)C(C)Sc1nnc(-c2ccccc2F)o1 (configuration not stated) | 691 nM
63 | CCc1c[nH]c2c(N3CCCC3=O)cc(C(=O)N[C@@H](Cc3ccccc3)[C@H](O)CNC3CCCCC3)cc12 | 102 nM
64 | COc1cc2c(cc1OC)C(C)(C)CN1Cc3c(c(CO)c(OC)c(OC)c3OC)CC21 (configuration not stated) | 782 nM
65 | COc1cc2nc(NC3CCN(Cc4ccccc4)CC3)nc(N)c2cc1OC | 166 nM
66 | CCC(CC)n1c(C)cc2c3c(N)nc(N)nc3ccc21 | 3.2 nM
67 | COc1ccc(CCN(C)CCCCNC(=O)c2ccc(NC(=O)c3ccc(Cl)cc3)cc2)c(OC)c1 | 921 nM
68 | CC(Cc1ccc(NC(=O)[C@H](C)NCCc2cccc(Cl)c2)cc1)NCCc1cccc(Cl)c1 (some centres not stated) | 663 nM
69 | O=C(Nc1cccc(-c2cccc(-c3nc4cc(F)ccc4[nH]3)c2)c1)Nc1ccc(F)c(F)c1F | 89.1 nM
70 | N=C(N)c1ccc(Nc2nc(Nc3ccc(-c4ccccc4)cc3)ncc2[N+](=O)[O-])cc1 | 804 nM
71 | O=C(/C=C/c1ccc(Cl)c(Cl)c1)NCCCCCN1CCN(C(=O)Nc2ccc(Cl)c(C(F)(F)F)c2)CC1 | 816 nM
72 | COc1cc(F)c2ncc(Cl)c(CCN3CCC(NCc4ccc5c(c4)NC(=O)CO5)CC3)c2c1 | 227 nM
73 | O=C(COc1ccc(C(=O)c2ccccc2)cc1)Nc1nccs1 | 887 nM
74 | Nc1c2ccccc2nc2ccc(Cl)cc12 | 805 nM

Row | SMILES | XC50
75 | COc1cc(-c2cc3cc(Cl)c(Cl)cc3[nH]2)ccc1C(=O)NCCC1CCCN1C (configuration not stated) | 969 nM
76 | Fc1ccc(C=NNc2nc3ccccc3[nH]2)cc1 | 783 nM
77 | O=C(NCCc1ccccc1)N(Cc1ccccc1-c1ccc(CNCCc2ccccc2)cc1)C1CCN(Cc2ccccc2)CC1 | 716 nM
78 | CCCCCCN1CCCN(Cc2ccc(C(=O)Nc3ccc(Cl)cc3)cc2)CC1 | 1210 nM
79 | COc1ccc(NS(=O)(=O)c2ccc(C(=O)Nc3ccc(C(F)(F)F)cc3)cc2)cc1N1CCN(CC2CC2)CC1 | 832 nM
80 | CCCNC(=O)C1CCN(C(c2ccccc2)c2ccc(Cl)c(Cl)c2)CC1 (configuration not stated) | 708 nM
81 | c1ccc(Oc2ccc(Nc3ccnc4cc(-c5ccc(CNCCN6CCOCC6)o5)ccc34)cc2)nc1 | 1440 nM
82 | COc1cc2nccc(Nc3ccc4c(cnn4Cc4ccccc4F)c3)c2cc1OC | 400 nM
83 | CCc1ccc(CN2CCC(CNC(=O)c3cc(-c4ccccc4F)cs3)C2)cc1 (configuration not stated) | 899 nM
84 | O=C(Nc1cccc(-c2nn3ccccc3c2-c2ccnc(Nc3ccccc3)n2)c1)c1cc(F)ccc1F | 953 nM
85 | Cc1cccc2nc(C(=O)Nc3nc(CN4CCC(C)CC4)cs3)cn12 | 758 nM
86 | Cc1ccc(Cn2ccc3c4c(N)nc(N)nc4ccc32)cc1 | 3.2 nM
87 | CN1CCC(C(=O)N(Cc2ccc(-c3ccc(CNCCc4ccc(S(C)(=O)=O)cc4)cn3)cc2)Cc2ccc3c(c2)OCO3)CC1 | 1000 nM
88 | COc1ccccc1CNC(=O)c1cc(C2CC2)nc2c1cnn2C(C)C | 1020 nM
89 | COc1cccc(CN2CCC(CCOC(c3ccccc3)c3ccccc3)CC2)c1O | 730 nM
90 | COc1cccc(NC(=O)N2CCOC(CCN3CCC4(CCc5ccccc54)CC3)(c3ccc(Cl)c(Cl)c3)C2)c1 (configuration not stated) | 1010 nM
91 | CC(C)(C)c1ccc(NC(=O)c2ccc(CN3CCCN(Cc4cccc(Cl)c4)CC3)cc2)cc1 | 972 nM
92 | Nc1nc2c(ncn2OC[C@H]2COP(=O)(O)CO2)c(=O)[nH]1 | 569 nM
93 | CCN(CCO)CCCC(C)Nc1ccnc2cc(Cl)ccc12 (configuration not stated) [HYDROXYCHLOROQUINE SULFATE] | 762 nM
94 | CN(C)C(=O)C(CC(=O)NCc1ccccc1Cl)N(C)C.CN(C)C(=O)CC(C(=O)NCc1ccccc1Cl)N(C)C (configuration not stated) | 896 nM
95 | COc1ccc2c(-c3ccccc3)noc2c1 | 241 nM
96 | c1ccc(CN2CCN(CCCCNc3c4ccccc4nc4ccccc34)CC2)cc1 | 117 nM
97 | CN(C)CC1CCCN1Cc1ccccc1-c1cnn(C)c(=O)c1Oc1ccc(F)cc1 (configuration not stated) | 1220 nM

Source: ChEMBL document CHEMBL1157539, “Thousands of chemical starting points for antimalarial lead identification” (Nature, 2010)
